In this experiment the target is T1, hFAP (Homo sapiens, UniProt Q12884).
T1 sequence (Q12884 1-760): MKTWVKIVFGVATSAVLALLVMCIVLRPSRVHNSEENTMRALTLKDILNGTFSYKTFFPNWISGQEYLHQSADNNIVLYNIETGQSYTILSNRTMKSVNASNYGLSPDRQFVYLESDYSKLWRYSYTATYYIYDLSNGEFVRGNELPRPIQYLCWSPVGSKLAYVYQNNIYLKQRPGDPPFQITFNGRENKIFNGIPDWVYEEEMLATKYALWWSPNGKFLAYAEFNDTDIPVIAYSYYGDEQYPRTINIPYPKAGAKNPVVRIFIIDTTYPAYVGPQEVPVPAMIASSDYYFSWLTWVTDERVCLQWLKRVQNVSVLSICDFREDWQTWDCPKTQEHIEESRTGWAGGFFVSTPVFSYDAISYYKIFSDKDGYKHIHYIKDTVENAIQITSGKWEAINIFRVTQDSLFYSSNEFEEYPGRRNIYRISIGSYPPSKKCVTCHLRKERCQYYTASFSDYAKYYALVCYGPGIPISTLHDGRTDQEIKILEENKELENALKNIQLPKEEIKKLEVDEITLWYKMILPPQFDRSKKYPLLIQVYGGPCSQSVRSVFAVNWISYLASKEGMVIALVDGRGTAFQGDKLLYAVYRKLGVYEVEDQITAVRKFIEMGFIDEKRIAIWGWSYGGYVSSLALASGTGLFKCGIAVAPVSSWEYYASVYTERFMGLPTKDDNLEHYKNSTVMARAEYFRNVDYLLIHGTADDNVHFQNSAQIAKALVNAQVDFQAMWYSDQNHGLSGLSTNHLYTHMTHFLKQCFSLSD
The experiment can be described thus: In vitro inhibition assay on hFAP (substrate Z-Gly-Pro-AMC). It is filed as biochemical. Conditions: isolated hFAP 200 pM, Z-Gly-Pro-AMC 20 μM, room temperature. As to the method:
The IC50 of all the ligands against isolated hFAP protein was assessed by an inhibition assay following published protocols (Supplementary Information and Supplementary Fig. 3).
In vitro inhibition assay on hFAP
The enzymatic activity of hFAP on the substrate Z-Gly-Pro-AMC was measured at room temperature on a microtiter plate reader, monitoring the fluorescence at an excitation wavelength of 360 nm and an emission wavelength of 465 nm. The assay was performed by mixing the substrate (20 μM), hFAP (200 pM, constant), and the ligands in assay buffer (50 mM Tris, 1 M NaCl, 1 mg/mL BSA, pH=7.5), with serial dilution of the inhibitors ranging from 250 nM to 2 fM, 1:2 in a total volume of 20 μL.
Experiments were performed in triplicate, and the mean fluorescence values were fitted using GraphPad Prism 9 (equation used: Y = Bottom + (Top − Bottom)/(1 +
((X^HillSlope)/(IC50^HillSlope)))). The IC50 value is defined as the concentration of ligand (inhibitor) required to reduce the enzyme activity by 50% after the addition of the substrate.
The results are presented in the Supplemental Figure 3.
(1 picture or pasted object on this page, not shown here)

This passage reports IC50 results from publication PMC10382406, “Head-to-head comparison of different classes of FAP radioligands designed to increase tumor residence time: monomer, dimer, albumin binders, and small molecules vs peptides” (European Journal of Nuclear Medicine and Molecular Imaging, 2023).

In the case of `CC(C)Cc1ccc(C(C)C(=O)NCC(NC(=O)CN2CCN(CC(=O)O)CCN(CC(=O)O)CCN(CC(=O)O)CC2)C(=O)N2CCN(CCCN(C)c3ccc4nccc(C(=O)NCC(=O)N5CC(F)(F)C[C@H]5C#N)c4c3)CC2)cc1` (stereo partly shown) [FAPI-46-Ibu], half-maximal inhibition (IC50) required 0.0394 ± 0.0161 nM.

Consider `CN(CCCN1CCN(C(=O)CC(NC(=O)CN2CCN(CC(=O)O)CCN(CC(=O)O)CCN(CC(=O)O)CC2)C(=O)N2CCN(CCCN(C)c3ccc4nccc(C(=O)NCC(=O)N5CC(F)(F)C[C@H]5C#N)c4c3)CC2)CC1)c1ccc2nccc(C(=O)NCC(=O)N3CC(F)(F)C[C@H]3C#N)c2c1` (stereo partly shown) [FAPI-46-F1D], for which the IC50 (commonly the concentration that inhibits the measured activity by half) amounted to 0.158 ± 0.0145 nM. As for `CN(CCCN1CCN(C(=O)CN2CCN(CC(=O)O)CCN(CC(=O)O)CCN(CC(=O)O)CC2)CC1)c1ccc2nccc(C(=O)NCC(=O)N3CC(F)(F)C[C@H]3C#N)c2c1` [FAPI-46, reference compound], the figure is 0.247 ± 0.017 nM. The compound `Cc1cc(-c2ccc(NC(=O)CC(NC(=O)CN3CCN(CC(=O)O)CCN(CC(=O)O)CCN(CC(=O)O)CC3)C(=O)N3CCN(CCCN(C)c4ccc5nccc(C(=O)NCC(=O)N6CC(F)(F)CC6C#N)c5c4)CC3)c(C)c2)ccc1N=Nc1ccc2c(S(=O)(=O)O)cc(S(=O)(=O)O)c(N)c2c1O` (stereo not shown) [FAPI-46-EB] displayed a concentration for half-maximal inhibition (IC50) of 0.634 ± 0.102 nM.
